These results are taken from US8404708B2, “Dual NK1/NK3 receptor antagonists” (Hoffmann-La Roche Inc., priority 2004, dated 2013).

One assay concerns the target human NK1 receptor (Homo sapiens, UniProt P25103). Kind of assay: NK1 receptor binding, [3H]substance P displacement, CHO cell membranes. The note with it: first value of the cell NK1/NK3; read-out: pKi NK1 (converted).
Assay [1] concerns the target T1, Recombinant human NK3 (hNK3) receptor (Homo sapiens, UniProt P29371).
T1 construct: expressed in transfected cells
T1 sequence (P29371 1-465): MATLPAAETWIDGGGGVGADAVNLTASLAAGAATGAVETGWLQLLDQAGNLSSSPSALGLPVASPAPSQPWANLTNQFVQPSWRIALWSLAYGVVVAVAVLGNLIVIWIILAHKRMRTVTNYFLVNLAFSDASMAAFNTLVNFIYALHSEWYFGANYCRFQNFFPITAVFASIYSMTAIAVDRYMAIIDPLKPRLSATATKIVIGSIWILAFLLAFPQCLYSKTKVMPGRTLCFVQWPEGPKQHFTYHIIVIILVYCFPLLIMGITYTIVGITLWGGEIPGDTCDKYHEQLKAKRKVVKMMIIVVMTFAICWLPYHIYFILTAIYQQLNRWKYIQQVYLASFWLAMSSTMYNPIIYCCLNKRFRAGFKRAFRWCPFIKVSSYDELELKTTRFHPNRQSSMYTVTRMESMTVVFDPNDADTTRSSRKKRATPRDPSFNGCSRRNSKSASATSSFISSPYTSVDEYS
Description: NK3 receptor binding, [3H]SR142801 displacement, membrane preparations. The following applies: second value of the cell NK1/NK3; read-out: pKi NK3 (converted). In short, it runs like this:
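hNK3 membranes (~2.5 μg/well) incubated 90 min at room temperature in 50 mM Tris-HCl pH 7.4 with 0.1% BSA, 4 mM MnCl2, 1 μM phosphoramidon. Nonspecific binding defined with 10 μM SB222200; bound [3H]SR142801 separated by filtration on PEI-soaked GF/C filters and counted by scintillation.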

Sequence of human NK1 receptor (P25103 whole entry): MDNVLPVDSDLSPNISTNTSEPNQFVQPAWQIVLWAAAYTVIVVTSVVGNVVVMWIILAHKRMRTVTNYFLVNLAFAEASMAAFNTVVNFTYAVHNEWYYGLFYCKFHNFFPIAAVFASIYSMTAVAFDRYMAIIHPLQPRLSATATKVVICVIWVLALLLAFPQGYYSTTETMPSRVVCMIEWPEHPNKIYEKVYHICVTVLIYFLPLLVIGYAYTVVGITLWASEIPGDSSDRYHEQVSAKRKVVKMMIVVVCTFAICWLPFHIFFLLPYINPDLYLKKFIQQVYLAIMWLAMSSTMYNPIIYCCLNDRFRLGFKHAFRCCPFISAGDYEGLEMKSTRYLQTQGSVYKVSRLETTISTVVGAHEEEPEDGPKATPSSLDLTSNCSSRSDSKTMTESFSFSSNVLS

For the compound `CN(C(=O)C(C)(C)c1cc(C(F)(F)F)cc(C(F)(F)F)c1)c1cnc(N2CC[C@H](O)[C@H]2CO)cc1-c1ccc(F)cc1` [Example 266, (2R,3S)-2-(3,5-Bis-trifluoromethyl-phenyl)-N-[4-(4-fluoro-phenyl)-6-(3-hydroxy-2-hydroxymethyl-pyrrolidin-1-yl)-pyridin-3-yl]-N-methyl-isobutyramide], the Ki on human NK1 receptor was 1.2 nM; in assay [1] it was 3.8 nM.

With `Cc1ccc(-c2cc(N3CC[C@H](O)[C@H]3CO)ncc2N(C)C(=O)C(C)(C)c2cc(C(F)(F)F)cc(C(F)(F)F)c2)cc1` [Example 267, (2R,3S)-2-(3,5-Bis-trifluoromethyl-phenyl)-N-[6-(3-hydroxy-2-hydroxymethyl-pyrrolidin-1-yl)-4-p-tolyl-pyridin-3-yl]-N-methyl-isobutyramide], the Ki on human NK1 receptor was 3.63 nM; in assay [1], 28.8 nM.

Consider `CN(C(=O)C(C)(C)c1cc(C(F)(F)F)cc(C(F)(F)F)c1)c1cnc(N2CC[C@H](O)[C@H]2CO)cc1-c1ccc(Cl)c(Cl)c1` [Example 268, (2R,3S)-2-(3,5-Bis-trifluoromethyl-phenyl)-N-[4-(3,4-dichloro-phenyl)-6-(3-hydroxy-2-hydroxymethyl-pyrrolidin-1-yl)-pyridin-3-yl]-N-methyl-isobutyramide], for which the Ki at human NK1 receptor is 2.29 nM; in assay [1], 2.4 nM.

Take `CN(C(=O)C(C)(C)c1cc(C(F)(F)F)cc(C(F)(F)F)c1)c1cnc(N2CC[C@H](O)[C@H]2CO)cc1-c1cccc(Cl)c1` [Example 269, (2R,3S)-2-(3,5-Bis-trifluoromethyl-phenyl)-N-[4-(3-chloro-phenyl)-6-(3-hydroxy-2-hydroxymethyl-pyrrolidin-1-yl)-pyridin-3-yl]-N-methyl-isobutyramide]: the values for the Ki (on human NK1 receptor; in assay [1]) were 1.86 nM and 3.55 nM, respectively.

As for `CN(C(=O)C(C)(C)c1cc(C(F)(F)F)cc(C(F)(F)F)c1)c1cnc(N2CC[C@H](O)[C@H]2CO)cc1-c1cc(Cl)ccc1Cl` [Example 270, (2R,3S)-2-(3,5-Bis-trifluoromethyl-phenyl)-N-[4-(2,5-dichloro-phenyl)-6-(3-hydroxy-2-hydroxymethyl-pyrrolidin-1-yl)-pyridin-3-yl]-N-methyl-isobutyramide], the Ki at human NK1 receptor is 2.63 nM; in assay [1], 2.19 nM.

Consider `CN(C(=O)C(C)(C)c1cc(C(F)(F)F)cc(C(F)(F)F)c1)c1cnc(N2CC[C@H](O)[C@H]2CO)cc1-c1cccc(Cl)c1Cl` [Example 271, (2R,3S)-2-(3,5-Bis-trifluoromethyl-phenyl)-N-[4-(2,3-dichloro-phenyl)-6-(3-hydroxy-2-hydroxymethyl-pyrrolidin-1-yl)-pyridin-3-yl]-N-methyl-isobutyramide], for which the Ki on human NK1 receptor was 3.02 nM; in assay [1], 1.38 nM.

As to `CN(C(=O)C(C)(C)c1cc(C(F)(F)F)cc(C(F)(F)F)c1)c1cnc(N2CC[C@H](O)[C@H]2CO)cc1-c1ccc(F)cc1Cl` [Example 272, (2R,3S)-2-(3,5-Bis-trifluoromethyl-phenyl)-N-[4-(2-chloro-4-fluoro-phenyl)-6-(3-hydroxy-2-hydroxymethyl-pyrrolidin-1-yl)-pyridin-3-yl]-N-methyl-isobutyramide], the Ki at human NK1 receptor is 2 nM; in assay [1], 1.1 nM.

For `CN(C(=O)C(C)(C)c1cc(C(F)(F)F)cc(C(F)(F)F)c1)c1cnc(N2CC[C@H](O)[C@H]2CO)cc1-c1ccc(F)cc1C=O` [Example 273, (2R,3S)-2-(3,5-Bis-trifluoromethyl-phenyl)-N-[4-(4-fluoro-2-formyl-phenyl)-6-(3-hydroxy-2-hydroxymethyl-pyrrolidin-1-yl)-pyridin-3-yl]-N-methyl-isobutyramide], the figures for the Ki (on human NK1 receptor; in assay [1]) were 1.45 nM and 1.55 nM, respectively.

As to `CN(C(=O)C(C)(C)c1cc(C(F)(F)F)cc(C(F)(F)F)c1)c1cnc(N2CC[C@H](O)[C@H]2CO)cc1-c1ccc(F)cc1CO` [Example 274, (2R,3S)-2-(3,5-Bis-trifluoromethyl-phenyl)-N-[4-(4-fluoro-2-hydroxymethyl-phenyl)-6-(3-hydroxy-2-hydroxymethyl-pyrrolidin-1-yl)-pyridin-3-yl]-N-methyl-isobutyramide], the Ki was 1.29 nM at human NK1 receptor and 1.51 nM in assay [1].

As to `Cc1c(F)cccc1-c1cc(N2CC[C@H](O)[C@H]2CO)ncc1N(C)C(=O)C(C)(C)c1cc(C(F)(F)F)cc(C(F)(F)F)c1` [Example 275, (2R,3S)-2-(3,5-Bis-trifluoromethyl-phenyl)-N-[4-(3-fluoro-2-methyl-phenyl)-6-(3-hydroxy-2-hydroxymethyl-pyrrolidin-1-yl)-pyridin-3-yl]-N-methyl-isobutyramide], the Ki was 1.48 nM at human NK1 receptor and 0.575 nM in assay [1].

As for `Cc1ccc(F)cc1-c1cc(N2CC[C@H](O)[C@H]2CO)ncc1N(C)C(=O)C(C)(C)c1cc(C(F)(F)F)cc(C(F)(F)F)c1` [Example 276, (2R,3S)-2-(3,5-Bis-trifluoromethyl-phenyl)-N-[4-(5-fluoro-2-methyl-phenyl)-6-(3-hydroxy-2-hydroxymethyl-pyrrolidin-1-yl)-pyridin-3-yl]-N-methyl-isobutyramide], the Ki at human NK1 receptor was 1.45 nM; in assay [1], 1.38 nM.

As for `CN(C(=O)C(C)(C)c1cc(C(F)(F)F)cc(C(F)(F)F)c1)c1cnc(N2CC[C@H](O)[C@H]2CO)cc1-c1cc(F)ccc1F` [Example 277, (2R,3S)-2-(3,5-Bis-trifluoromethyl-phenyl)-N-[4-(2,5-difluoro-phenyl)-6-(3-hydroxy-2-hydroxymethyl-pyrrolidin-1-yl)-pyridin-3-yl]-N-methyl-isobutyramide], the values for the Ki (at human NK1 receptor; in assay [1]) were 1.48 nM and 2.45 nM, respectively.

For `Cc1ncccc1-c1cc(N2CC[C@H](O)[C@H]2CO)ncc1N(C)C(=O)C(C)(C)c1cc(C(F)(F)F)cc(C(F)(F)F)c1` [Example 278, (2R,3S)-2-(3,5-Bis-trifluoromethyl-phenyl)-N-[6′-(3-hydroxy-2-hydroxymethyl-pyrrolidin-1-yl)-2-methyl-[3,4′]bipyridinyl-3′-yl]-N-methyl-isobutyramide], the results for the Ki (at human NK1 receptor; in assay [1]) were 0.813 nM and 2.69 nM, respectively.

As to `Cc1ccccc1-c1cc(N2CCC[C@H]2CO)ncc1N(C)C(=O)C(C)(C)c1cc(C(F)(F)F)cc(C(F)(F)F)c1` [Example 279, (S)-2-(3,5-Bis-trifluoromethyl-phenyl)-N-[6-(2-hydroxymethyl-pyrrolidin-1-yl)-4-o-tolyl-pyridin-3-yl]-N-methyl-isobutyramide], the Ki at human NK1 receptor is 2.82 nM; in assay [1], 1.17 nM.

In the case of `COc1ccccc1-c1cc(N2CCC[C@H]2CO)ncc1N(C)C(=O)C(C)(C)c1cc(C(F)(F)F)cc(C(F)(F)F)c1` [Example 280, (S)-2-(3,5-Bis-trifluoromethyl-phenyl)-N-[6-(2-hydroxymethyl-pyrrolidin-1-yl)-4-(2-methoxy-phenyl)-pyridin-3-yl]-N-methyl-isobutyramide], the Ki is 1.82 nM at human NK1 receptor and 1.86 nM in assay [1].

On to `CN(C(=O)C(C)(C)c1cc(C(F)(F)F)cc(C(F)(F)F)c1)c1cnc(N2CCC[C@H]2CO)cc1-c1ccccc1Br` [Example 281, (S)-2-(3,5-Bis-trifluoromethyl-phenyl)-N-[4-(2-bromo-phenyl)-6-(2-hydroxymethyl-pyrrolidin-1-yl)-pyridin-3-yl]-N-methyl-isobutyramide], for which the Ki on human NK1 receptor is 3.47 nM; in assay [1] it was 1.82 nM.

As to `CN(C(=O)C(C)(C)c1cc(C(F)(F)F)cc(C(F)(F)F)c1)c1cnc(N2CCC[C@H]2CO)cc1-c1ccccc1F` [Example 282, (S)-2-(3,5-Bis-trifluoromethyl-phenyl)-N-[4-(2-fluoro-phenyl)-6-(2-hydroxymethyl-pyrrolidin-1-yl)-pyridin-3-yl]-N-methyl-isobutyramide], the results for the Ki (at human NK1 receptor; in assay [1]) were 3.09 nM and 2.24 nM, respectively.

Consider `CN(C(=O)C(C)(C)c1cc(C(F)(F)F)cc(C(F)(F)F)c1)c1cnc(N2CCC[C@H]2CO)cc1-c1ccc(Cl)cc1Cl` [Example 283, (S)-2-(3,5-Bis-trifluoromethyl-phenyl)-N-[4-(2,4-dichloro-phenyl)-6-(2-hydroxymethyl-pyrrolidin-1-yl)-pyridin-3-yl]-N-methyl-isobutyramide], for which the Ki is 2.82 nM on human NK1 receptor and 1.48 nM in assay [1].

In the case of `CN(C(=O)C(C)(C)c1cc(C(F)(F)F)cc(C(F)(F)F)c1)c1cnc(N2CCC[C@H]2CO)cc1-c1cc(Cl)ccc1Cl` [Example 284, (S)-2-(3,5-Bis-trifluoromethyl-phenyl)-N-[4-(2,5-dichloro-phenyl)-6-(2-hydroxymethyl-pyrrolidin-1-yl)-pyridin-3-yl]-N-methyl-isobutyramide], the Ki is 1.48 nM at human NK1 receptor and 1.45 nM in assay [1].

As to `CN(C(=O)C(C)(C)c1cc(C(F)(F)F)cc(C(F)(F)F)c1)c1cnc(N2CCC[C@H]2CO)cc1-c1cccc(Cl)c1Cl` [Example 285, (S)-2-(3,5-Bis-trifluoromethyl-phenyl)-N-[4-(2,3-dichloro-phenyl)-6-(2-hydroxymethyl-pyrrolidin-1-yl)-pyridin-3-yl]-N-methyl-isobutyramide], the Ki at human NK1 receptor was 1.58 nM; in assay [1], 1.86 nM.
